In US6177469A, “Lipid alcohols as new immunosuppressive and antiviral drugs” (priority 1995, dated 2001):
Like-named read-outs stand apart in the source and are kept apart here.

What was measured:
[1] = cytotoxicity in CEM-SS cells by uptake of TdR-^3H into total DNA; type: cell-based; conditions: human, TdR-^3H uptake into total DNA, read-out: IC50 cytotoxicity
Procedure: (§1) The cell cytotoxicity and the anti-HIV-1-activity in CEM-SS cells of selected lipid alcohols are stated in table 1.
(§2) The cytotoxicity was determined by uptake of TdR-^3 H into the total DNA at various concentrations of the stated compounds. The anti-HIV 1 activity was determined using a standard plaque assay of a CEM-SS cell monolayer. The differential selectivity results from the quotient of the IC50 and anti-HIV 1 activity concentrations. ND means not determined.

[2] = tested on: HIV-1; assay: anti-HIV-1 activity, standard plaque assay of a CEM-SS cell monolayer; type: cell-based; conditions: for IC50: read-out: IC50 anti-HIV-1; for Diff. selectivity: quotient of cytotoxicity IC50 and anti-HIV 1 IC50
Procedure: as §1, §2

[3] = Human immunodeficiency virus 1, CEM-SS cell monolayer, plaque assay

CCCCCCCCCCCCCCSCC(CO)OCCCCCCCCCC (stereo not shown) [3-tetradecylmercapto-2-decyloxy-1-propanol]
CC50 [1]: > 100 µM | IC50 [2, 3]: > 20 µM

CCCCCCCCCCCCSCC(CO)OCCCCCCCC (stereo not shown) [3-dodecylmercapto-2-octyloxy-1-propanol]
CC50 [1]: > 90.6 µM | IC50 [2, 3]: 7.01 µM | Diff. selectivity [2]: > 12.92

CCCCCCCCCCCC[S+]([O-])CC(CO)OCCCCCCCCCC (stereo not shown) [3-dodecylsulfinyl-2-decyloxy-1-propanol]
CC50 [1]: 36.8 µM | IC50 [2, 3]: 0.18 µM | Diff. selectivity [2]: 204.22

CCCCCCCCCCCCS(=O)(=O)CC(CO)OCCCCCCCCCC (stereo not shown) [3-dodecylsulfonyl-2-decyloxy-1-propanol]
CC50 [1]: 32.7 µM | IC50 [2, 3]: 0.54 µM | Diff. selectivity [2]: 60.52

CCCCCCCCCCOC(CO)CSCC(C)CCCCCCCCC (stereo not shown) [3-(2-methyl-undecyl)mercapto-2-decyloxy-1-propanol]
CC50 [1]: > 100 µM | IC50 ([2]; Human immunodeficiency virus 1, CEM-SS): 51.2 µM | Diff. selectivity [2]: > 1.95

CCCCCCCCCCCOC(CO)CSCCCCCCCCCCC (stereo not shown) [3-undecylmercapto-2-undecyloxy-1-propanol]
CC50 [1]: > 100 µM | IC50 [2, 3]: 2.95 µM | Diff. selectivity [2]: > 33.90

CCCCCCCCCCCCOC(CO)CSCCCCCCCCCCCC (stereo not shown) [3-dodecylmercapto-2-dodecyloxy-1-propanol]
CC50 [1]: > 100 µM | IC50 [2, 3]: > 20 µM
